Measured values: patent US20180228853A1 (priority 2015, published 2018)
Read-outs that look alike come from different tables or passages of the source.

Assays:
[1] = system: H1N1 virus strain A/PR/8/34; experiment: microbe, parasite or virus in culture; assay type: cell-based, Influenza A (H1N1) virus; conditions: MDCK cells
H1N1 virus particles = experiment: Direct binding assay to H1N1 virus particles (DART TOF-MS); parameters: species or system Influenza A (H1N1) virus
Method: Further, direct binding of test biomarkers in HSRx 351 to influenza virus and hemagglutinin were evaluated using the methods described in Roscheck Jr 2009. […] The methodology used is described in Roschek Jr 2009.
Viral Particles—Briefly, H1N1 virus particles were incubated with HSRx 351 or synthetic biomarkers 6 or 7 analog, to allow binding of the compounds within HSRx 351. After incubation, unbound compounds were removed by washing the virus particles three times through a 100 kDa molecular weight cut off membrane filter (Amicon 100 kDa filter, Ultracel PL-100; Millipore Corp. Billerica, Mass.) with phosphate buffered saline (PBS). The virus particles were then collected and fixed in 100% EtOH. The fixed virus particles and the washed fractions containing the unbound chemicals were collected and analyzed directly by DART TOF-MS for comparison.

[2] = system: influenza or influenza-like illness; experiment: Randomized, single-blind clinical study, treatment of influenza or influenza-like illness in combination with Tamiflu; assay type: in vivo, human
Method: Subjects were randomized and placed on a treatment regimen of five days. Group C contained 29 subjects that received 75 mg of Tamiflu® (Oseltamivir Phosphate) in capsule form two times a day for five days. Group D contained 29 subjects that received 75 mg of Tamiflu® (Oseltamivir Phosphate) in capsule form and two 175 mg lozenges of HSRx 351 two times a day for 5 days.
Subjects were also instructed to record any adverse events.
Statistical Analysis/Results—A survival analysis was performed to compare over time the Influenza symptom functions of groups C and D. The time dependent event for which survival and hazard functions were calculated was the final data collection visit for each subject. A Generalized Linear Mixed Model was run to test the hypothesis of fewer adverse events in the combination treatment Group D versus Tamiflu® (Oseltamivir phosphate) only treatment groups C. Parameter estimates such as beta weights and R2 were evaluated along with a P value significance level set at 5%.

[3] = system: flu and/or flu like symptoms; conditions: 10 day regimen, 30 subjects per group
[4] = Influenza A virus, read-out: IC50
[5] = Influenza A virus, read-out: IC50 (μg/mL)
[6] = preliminary statistical results

3-Hydroxyflavonone [Biomarker 7 analog]
IC50 (μg/mL) [1]: 2.8 and μg/mL | IC50 ([1]; read-out: IC50): 8.7 µM | binding to H1N1 virus particles (enrichment in the fixed virus samples over the washed fractions) (H1N1 virus particles): bind H1N1 virus particles

NC12CC3CC(CC(C3)C1)C2 [Amantadine, amantadine]
IC50 [1, 4]: 27 µM | IC50 [1, 5]: 4.1 µg/mL

CCOC(=O)C1=C[C@@H](OC(CC)CC)[C@H](NC(C)=O)[C@@H](N)C1 [Oseltamivir, oseltamivir]
IC50 [1, 4]: 0.32 µM | IC50 [1, 5]: 0.1 µg/mL

CCOC(=O)C1=C[C@@H](OC(CC)CC)[C@H](NC(C)=O)[C@@H](N)C1 [Tamiflu ®, Oseltamivir Phosphate]
Adverse events attributed to study product ([2]; 29 subjects per group): 4 number of subjects | At least one symptom worsened by end of study ([2]; 29 subjects per group): 6 number of subjects | Multiple symptoms worsened by end of study ([2]; 29 subjects per group): 3 number of subjects | Symptoms failed to improve by end of study ([2]; 29 subjects per group): 2 number of subjects | Composite VAS assessment exceeding baseline VAS ([2]; five day treatment, preliminary results): baseline VAS = 126 | % Average Reduction, Aches and pains [2, 6]: 64.46% | % Average Reduction, Composite [2, 6]: 63.83% | % Average Reduction, Degree of coughing [2, 6]: 67.74% | % Average Reduction, Fever reduction [2, 6]: 85.38% | % Average Reduction, Frequency of coughing [2, 6]: 50.38% | % Average Reduction, Mucus discharge in the respiratory tract [2, 6]: 54.63% | % Average Reduction, Nasal congestion [2, 6]: 66.35% | % Average Reduction, Quality of sleep [2, 6]: 57.89% | medically related adverse events reported [3]: Five
